The target in the assay is human thrombin (Homo sapiens, UniProt P00734). Briefly: Measurement of thrombin inhibition (in vitro enzyme assay). The note with it: human thrombin 0.06 nmol/l, 15 min incubation at 22° C., pH 7.4; substrate 5 μmol/l Boc-Asp(OBzl)-Pro-Arg-AMC, 30 min, fluorescence. The format is biochemical. On the procedure: For determination of the thrombin inhibition of the aforementioned substances, a biochemical test system is used, in which the conversion of a thrombin substrate is used for determining the enzymatic activity of human thrombin. In this, thrombin cleaves aminomethylcoumarin from the peptic substrate, and this is measured by fluorescence. The determinations are carried out in microtitre plates.
The test substances are dissolved at different concentrations in dimethylsulphoxide and incubated for 15 min with human thrombin (0.06 nmol/l dissolved in 50 mmol/l Tris-buffer [C,C,C-Tris(hydroxymethyl)-aminomethane], 100 mmol/l NaCl, 0.1% BSA [bovine serum albumin], pH 7.4) at 22° C. Then the substrate (5 μmol/l Boc-Asp(OBzl)-Pro-Arg-AMC from the company Bachem) is added. After incubation for 30 min the sample is excited at a wavelength of 360 nm and the emission at 460 nm is measured. The measured emissions of the test preparations with test substance are compared with the control preparations without test substance (dimethylsulphoxide only, instead of test substance in dimethylsulphoxide) and IC50 values are calculated from the concentration-effect relations.

pIC50: −log10 of the molar value.

What is called pIC50 is the IC50 on a negative log10 scale, so that one unit is a factor of ten. With `O=C(NCc1cccc(Cl)c1)c1ccc2cn(CCN3CCOC3=O)nc2c1` [Example 4, N-(3-Chlorobenzyl)-2-[2-(2-oxo-1,3-oxazolidin-3-yl)ethyl]-2H-indazole-6-carboxamide], the negative logarithm of the IC50 (pIC50) was 6.67.

In turn, `Cc1nn(CCn2cc3ccc(C(=O)NCc4cccc(Cl)c4)cc3n2)c(C)c1Cl` [Example 26, N-(3-Chlorobenzyl)-2-[2-(4-chloro-3,5-dimethyl-1H-pyrazol-1-yl)ethyl]-2H-indazole-6-carboxamide] gave a pIC50 of 6.96.

`CN(C)C(Cn1cc2ccc(C(=O)NCc3cccc(Cl)c3)cc2n1)c1ccccc1Cl` (stereo not drawn) [Example 49, N-(3-Chlorobenzyl)-2-[2-(2-chlorophenyl)-2-(dimethylamino)ethyl]-2H-indazole-6-carboxamide] showed a pIC50 of 7.59.
